{
  "source": "patent US11679110B2",
  "about": "“Methods of treating disorders using CSF1R inhibitors” (Deciphera Pharmaceuticals, LLC, priority 2018, dated 2023)",
  "key": {"advanced solid tumors": {"system": "advanced solid tumors", "assay": "Antitumor activity in patients with advanced solid tumors, RECIST 1.1", "format": "in vivo, human", "from_the_text": "The study enrolls patients with solid tumors or manifestations of cancer with known contribution of macrophages or phagocytes, i.e., tumors known to have expression of the receptor colony-stimulating factor 1 receptor (CSF1R) or its ligands, Colony stimulating factor-1 (CSF1) or interleukin (IL)-34, confirmed by the literature or prior testing. […]. In addition, tumor-associated manifestations featuring macrophage or osteoclast pathophysiology including bone metastases and ascites or effusions that typically contain high levels of macrophages will be enrolled. […].\nThe study consists of a screening period that is conducted within 28 days prior to the first dose of study drug, a treatment period of 28-day cycles, an End of Treatment visit, and Follow-up Safety visits at both 30 days and 75 days (±5 days) after the last dose of study drug. Patients will be eligible to receive study drug for up to 2 years until tumor progression, occurrence of unacceptable toxicity, or withdrawal of consent, or until commercial supply of the drug is available. […] Patients may continue receiving treatment after tumor progression. […]\nTumor response will be assessed by tumor type using the following criteria: for solid tumors and DTGCT: RECIST, Version 1.1; and for bone-only disease: a new lesion(s) identified by bone scan will be considered as disease progression."}, "[1]": {"assay": "Dose escalation 3+3 design, DLT / maximum tolerated dose in patients", "format": "in vivo, human", "details": "through Cohort 7", "from_the_text": "A minimum of 3 patients is enrolled in each dose level cohort. If a patient experiences a DLT during Cycle 1, then the cohort will be expanded to 6 patients. If ≥2 patients out of 3 to 6 patients experience one or more dose-limiting toxicities (DLT(s)) during Cycle 1, dose escalation will end, and a lower dose level cohort will be expanded for determination of the maximum tolerated dose (MTD). If no additional patients experience a DLT in the expanded cohort, the dose level will be escalated. Decisions of dose escalation and the dose level of the next cohort will be determined. A patient will be evaluable in the dose escalation phase if the patient either experienced a DLT during Cycle 1 or received ≥80% of planned doses of study drug in Cycle 1. After Dose Escalation Cohort 6, a review of safety, PK and PD data will determine future escalation cohorts. No more than 50% increases in a total dose given in the first cycle will be allowed from the previous cohort.\nThe MTD will be defined as the highest dose level at which no more than 1 of 6 DLT-evaluable patients experiences a DLT(s) in Cycle 1 during dose escalation. An additional, lower, intermediate dose level may be explored to determine a recommended phase 2 dose (RP2D). The RP2D will be the MTD or a biologically active or maximally feasible dose lower than the MTD. Different RP2Ds may be determined for solid tumor and DTGCT patients. […]"}, "[2]": {"biological_target": "unphosphorylated c-KIT kinase (Homo sapiens (Human), UniProt P10721)", "sequence (P10721 other isoform, or with tags, fused parts or gaps)": "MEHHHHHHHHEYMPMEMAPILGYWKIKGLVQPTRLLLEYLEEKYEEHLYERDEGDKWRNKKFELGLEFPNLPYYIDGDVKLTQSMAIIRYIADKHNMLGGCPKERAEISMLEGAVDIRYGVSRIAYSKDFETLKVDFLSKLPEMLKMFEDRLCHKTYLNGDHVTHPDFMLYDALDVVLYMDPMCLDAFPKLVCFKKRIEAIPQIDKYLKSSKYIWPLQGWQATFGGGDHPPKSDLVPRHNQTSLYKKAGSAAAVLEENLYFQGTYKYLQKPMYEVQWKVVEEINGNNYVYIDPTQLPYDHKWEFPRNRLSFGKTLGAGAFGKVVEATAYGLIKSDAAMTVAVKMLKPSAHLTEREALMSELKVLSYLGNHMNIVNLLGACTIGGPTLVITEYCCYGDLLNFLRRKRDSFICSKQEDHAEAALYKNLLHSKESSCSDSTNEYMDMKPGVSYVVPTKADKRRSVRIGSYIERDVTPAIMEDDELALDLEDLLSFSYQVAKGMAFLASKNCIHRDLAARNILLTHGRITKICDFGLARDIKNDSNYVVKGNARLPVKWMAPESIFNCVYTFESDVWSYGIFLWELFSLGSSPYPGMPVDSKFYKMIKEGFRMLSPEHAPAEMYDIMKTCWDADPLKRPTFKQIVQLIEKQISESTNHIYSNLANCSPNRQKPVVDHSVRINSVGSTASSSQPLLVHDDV", "assay": "c-KIT kinase assay, coupled pyruvate kinase/lactate dehydrogenase", "format": "biochemical", "details": "enzymatic assay, 1 mM ATP"}, "[3]": {"details": "dog, in vivo"}},
  "data": [
    {"smiles": "Cc1nc(-c2cnc(NC(C)C)n(C)c2=O)ccc1Oc1ccnc(-c2cnn(C)c2)c1", "note": "[Compound 1, 2-(isopropylamino)-3-methyl-5-(6-methyl-5-((2-(1-methyl-1H-pyrazol-4-yl)pyridin-4-yl)oxy)pyridin-2-yl)pyrimidin-4(3H)-one]", "values": [
      {"measurement": "duration of stable disease", "setting": "advanced solid tumors; a patient with thymoma", "result": 6, "unit": "months"},
      {"measurement": "patients with a best response of stable disease", "setting": "advanced solid tumors; advanced solid tumors, dose escalation", "result": 5, "unit": "patients"},
      {"measurement": "MTD", "setting": "[1]", "result": "has not been reached"},
      {"measurement": "IC50", "setting": "[2]", "result": 864, "unit": "nM"},
      {"measurement": "HNSTD (Highest Non-Serious Toxic Dose)", "setting": "[3]; beagle, 4 weeks", "result": 7.5, "unit": "mg/kg/day"},
      {"measurement": "safety margin at NOAEL/HNSTD relative to clinical exposure (AUC)", "setting": "[3]", "result": "about 2.1 ×"}
    ]}
  ]
}
